Results taken from patent publication US10610522B2, “Methods for retreating irritable bowel syndrome (IBS)” (Salix Pharmaceuticals, Inc., priority 2014, dated 2020).
Like-named read-outs stand apart in the source and are kept apart here.

What was measured:
[1] = tested on: non-constipation IBS; experiment: Combined first and second studies (TARGET 1 and 2): pooled efficacy, sustained response and recurrence; type: in vivo, human; settings: for No Recurrence, Abdominal Pain & Stool Consistency: number of subjects / No Recurrence, Abdominal Pain: % of subjects / No Recurrence, Abdominal Pain: number of subjects / No Recurrence, Stool Consistency: % of subjects / No Recurrence, Stool Consistency: number of subjects / Recurrence, Abdominal Pain & Stool Consistency: % of subjects / Recurrence, Abdominal Pain & Stool Consistency: number of subjects / Recurrence, Abdominal Pain: % of subjects / Recurrence, Abdominal Pain: number of subjects / Recurrence, Stool Consistency: % of subjects / Recurrence, Stool Consistency: number of subjects / No Recurrence, Abdominal Pain & Stool Consistency: % of subjects: N = 624; for Abdominal Pain or Stool Consistency, No Recurrence / Abdominal Pain or Stool Consistency, Recurrence: Rifaximin (N = 624), n (%)
Protocol: A measure of efficacy is based on subjects' answers to the Weekly Subject Global Assessment (SGA) questions over the study duration in relation to their IBS symptoms.
An evaluation of the enrolled subjects was carried out after the Primary Evaluation Period in the study described in Examples 5-7. […] Subjects with no recurrence are defined as having a stool consistency score of less than 4, abdominal pain reduced by at least 30 percent or both.

[2] = tested on: IBS; settings: cited from earlier work
[3] = tested on: non-constipation IBS; experiment: Study 2 (TARGET 2): rifaximin 550 mg TID 14 days vs placebo in non-C IBS, 10-week follow-up; type: in vivo, human; settings: at least 2 weeks during PEP
[4] = Pimentel, et al., responders/retreated
[5] = Yang, et al, responders/retreated

## CO[C@H]1/C=C/O[C@@]2(C)Oc3c(C)c(O)c4c(O)c(c5c(nc6cc(C)ccn65)c4c3C2=O)NC(=O)/C(C)=C\C=C\[C@H](C)[C@H](O)[C@@H](C)[C@@H](O)[C@@H](C)[C@H](OC(C)=O)[C@@H]1C [Rifaximin, (2S,16Z,18E,20S,21S,22R,23R,24R,25S,26S,27S,28E)-5,6,21,23,25 Pentahydroxy-27-methoxy-2,4,11,16,20,22,24,26-octamethyl-2,7-(epoxypentadeca-(1,11,13)trienimino) benzofuro (4,5-e) pyrido(1,2-a) benzimidazole-1,15(2H)-dione,25-acetate]
[1]; Rolling 4 Weeks: 7-10 Weeks
  No Recurrence, Abdominal Pain & Stool Consistency: number of subjects: 244
  No Recurrence, Abdominal Pain: % of subjects: (42.6%)
  No Recurrence, Abdominal Pain: number of subjects: 266
  No Recurrence, Stool Consistency: % of subjects: (72.9%)
  No Recurrence, Stool Consistency: number of subjects: 455
  Recurrence, Abdominal Pain & Stool Consistency: % of subjects: 1.8%
  Recurrence, Abdominal Pain & Stool Consistency: number of subjects: 11
  Recurrence, Abdominal Pain: % of subjects: 2.4%
  Recurrence, Abdominal Pain: number of subjects: 15
  Recurrence, Stool Consistency: % of subjects: 1.4%
  Recurrence, Stool Consistency: number of subjects: 9
[1]; Rolling 4 Weeks: 8-11 Weeks
  No Recurrence, Abdominal Pain & Stool Consistency: % of subjects: (37.3%)
  No Recurrence, Abdominal Pain & Stool Consistency: number of subjects: 233
  No Recurrence, Abdominal Pain: % of subjects: (40.2%)
  No Recurrence, Abdominal Pain: number of subjects: 251
  No Recurrence, Stool Consistency: % of subjects: (71.5%)
  No Recurrence, Stool Consistency: number of subjects: 446
  Recurrence, Abdominal Pain & Stool Consistency: % of subjects: 2.2%
  Recurrence, Abdominal Pain & Stool Consistency: number of subjects: 14
  Recurrence, Abdominal Pain: % of subjects: 2.2%
  Recurrence, Abdominal Pain: number of subjects: 14
  Recurrence, Stool Consistency: % of subjects: 0.5%
  Recurrence, Stool Consistency: number of subjects: 3
[1]; Rolling 4 Weeks: 9-12 Weeks
  No Recurrence, Abdominal Pain & Stool Consistency: % of subjects: (35.1%)
  No Recurrence, Abdominal Pain & Stool Consistency: number of subjects: 219
  No Recurrence, Abdominal Pain: % of subjects: (38.0%)
  No Recurrence, Abdominal Pain: number of subjects: 237
  No Recurrence, Stool Consistency: % of subjects: (71.0%)
  No Recurrence, Stool Consistency: number of subjects: 443
  Recurrence, Abdominal Pain & Stool Consistency: % of subjects: 1.9%
  Recurrence, Abdominal Pain & Stool Consistency: number of subjects: 12
  Recurrence, Abdominal Pain: % of subjects: 2.2%
  Recurrence, Abdominal Pain: number of subjects: 14
  Recurrence, Stool Consistency: % of subjects: 2.1%
  Recurrence, Stool Consistency: number of subjects: 13
[1]; Rolling 5-8 Weeks
  Abdominal Pain or Stool Consistency, No Recurrence: 234 (37.5%)
  Abdominal Pain or Stool Consistency, Recurrence: 16 (2.6%)
[1]; Rolling 6-9 Weeks
  Abdominal Pain or Stool Consistency, No Recurrence: 218 (34.9%)
  Abdominal Pain or Stool Consistency, Recurrence: 10 (1.6%)
[1]; Rolling 7-10 Weeks
  Abdominal Pain or Stool Consistency, No Recurrence: 208 (33.3%)
  Abdominal Pain or Stool Consistency, Recurrence: 10 (1.6%)
[1]; Rolling 8-11 Weeks
  Abdominal Pain or Stool Consistency, No Recurrence: 198 (31.7%)
  Abdominal Pain or Stool Consistency, Recurrence: 8 (1.3%)
[1]; Rolling 9-12 Weeks
  Abdominal Pain or Stool Consistency, No Recurrence: 190 (30.4%)
  Abdominal Pain or Stool Consistency, Recurrence: 10 (1.6%)
[2]; Jolley (~1 yr), IBS-D patients, 1200 mg/day for 10 days
  Initial treatment response: 56% (25/45)
[2]; Jolley, IBS-D patients, 2400 mg/day for 10 days
  Re-treatment response (at least 1): (at least 1): 54% (13/24)
[2]; Jolley, IBS-D patients
  Complete (>90%) relief: 11% (5/45)
  Complete (>90%) relief upon re-treatment: 13% (3/24)
[2]; Pimentel, et al. (>6 yr), 169 Non-C IBS patients (Rome III), 400-550 mg TID for 14 days
  Initial treatment response: 75% (111/148)
[2]; Pimentel, et al., 1 to 6 re-treatments
  Re-treatment response (at least 1): (at least 1): >75%
[2]; Pimentel, et al.
  Duration of benefit: ~4 m
[2]; [4]
  Re-treatment response, First: 54/65
  Re-treatment response, Second: 38/40
  Re-treatment response, Third: Third: 17/18
[2]; Weinstock (>6 yr), 99 Non-C IBS patients (Rome II), 1200-1650 mg/day for 10 days
  Initial treatment response: 75% (74/99)
[2]; Weinstock
  Patients who did not require re-treatment: 27% did not require
  Patients who maintained response for mean 1.6 y: 41% maintained response
  Patients with only 1-2 retreatment in 2 y: 51% only 1-2 retreatment
[2]; Yang, et al (1.25 yr), 84 IBS patients (Rome I), 1200 mg/day for 10 days
  Initial treatment response: 69% (58/84)
[2]; Yang, et al, 1200 mg/day for 10 days
  Re-treatment response (at least 1): (at least 1): 100%
[2]; [5]
  Re-treatment response, First: 16/16
  Re-treatment response, Second: 4/4
[3]
  Responders: abdominal pain reduction of 1 point in weekly median: 62%
  Responders: abdominal pain reduction of 2 point in mean: 25%
  Responders: overall reduction of median weekly abdominal pain by >= 75%: 20%
